Measurements as given in patent US11608341B2, “Substituted tetrahydropyrazolo[3,4-d]pyrimidines and tetrahydropyrazolo[4,3-d]pyrimidines as C5A receptor modulators” (Idorsia Pharmaceuticals Ltd., priority 2018, dated 2023).

The molecules below were run against T1, C5AR1 (Homo sapiens, UniProt P21730) (assay: In vitro assay: antagonism of C5a-induced beta-arrestin recruitment (PathHunter) in CHO-K1 C5AR1 beta-arrestin cell line). Conditions: antagonistic activity, 1-10 nM C5a agonist, geometric mean where several measurements, read-out: C5aR IC50.
T1 construct: host or cells: CHO-K1
T1 sequence (P21730 1-350): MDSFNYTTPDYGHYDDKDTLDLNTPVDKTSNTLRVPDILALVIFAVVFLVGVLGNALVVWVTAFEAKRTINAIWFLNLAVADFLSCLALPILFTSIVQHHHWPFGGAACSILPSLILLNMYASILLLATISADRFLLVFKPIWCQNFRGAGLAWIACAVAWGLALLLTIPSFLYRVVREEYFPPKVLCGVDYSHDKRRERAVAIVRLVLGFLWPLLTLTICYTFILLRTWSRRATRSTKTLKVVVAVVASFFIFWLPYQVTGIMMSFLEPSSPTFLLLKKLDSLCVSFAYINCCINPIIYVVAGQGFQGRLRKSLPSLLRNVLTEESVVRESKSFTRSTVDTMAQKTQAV
Format: cell-based
Protocol: 5 μl Antagonist at 6-fold end concentration or DMSO control is added to assay medium and subsequently 5 μl 1-10 nM C5a agonist at 6 fold end concentration. Cells are centrifuged for 1 min at 1000 rpm and incubated for 1.5 hour in at 37° C. Plates are equilibrated at room temperature for several minutes before adding 12 μl/well Detection Reagent (PathHunter Detection Kit, DiscoverX, Cat #93-0001). Plates are centrifuged for 1 min at 1000 rpm and incubated for 45 minutes at RT before being measured on a Fluostar Optima, BMG Labtech. IC50 values are calculated from a serial dilution range of antagonist using inhouse software and given in nmol/l.
The calculated IC50 values may fluctuate depending on the daily cellular assay performance. Fluctuations of this kind are known to those skilled in the art. Average IC50 values from several measurements are given as geometric mean values.
For `CC1c2cn(C3CCCCO3)nc2N(Cc2ccccc2C(F)(F)F)C(=O)N1C1CCN(c2c(F)cccc2C(F)F)CC1` (centres unmarked) [Example 341], the IC50 was 31 nM.
For `Cn1cc2c(n1)N(Cc1ccccc1C(F)(F)F)C(=O)N(C1CCN(c3c(F)cccc3C3CC3)CC1)C2` [Example 303], the IC50 was 10 nM.
`Cc1cccc(F)c1N1CCC(N2Cc3cn(C4CN(CC(C)C)C4)nc3N(Cc3ccccc3C(F)(F)F)C2=O)CC1` [Example 104] was tested, and the IC50 was 146 nM.
With `Cc1cccc(F)c1N1CCC(N2Cc3cn(C4CN(C(=O)N(C)C)C4)nc3N(Cc3ccccc3C(F)(F)F)C2=O)CC1` [Example 119] the IC50 was 296 nM.
With `COc1nccc(C(F)F)c1N1CCC(N2C(=O)N(Cc3ccccc3C(F)(F)F)c3nn(C4CC4)cc3C2C)CC1` (single isomer, unassigned) [Example 359] the IC50 was 185 nM.
`Cc1cccc(Cl)c1N1CCC(N2Cc3cn(C)nc3N(Cc3ccccc3C(F)(F)F)C2=O)CC1` [Example 245] showed an IC50 of 16 nM.
In the case of `CC1c2cn(C3CC3)nc2N(Cc2ccccc2C(F)(F)F)C(=O)N1C1CCN(c2c(F)cccc2Br)CC1` (single isomer, unassigned) [Example 361], the IC50 is reported as 13 nM.
Molecule `Cn1cc2c(n1)N(Cc1ccccc1C(F)(F)F)C(=O)N(C1CCN(c3ccccc3C3CC3)CC1)C2` [Example 258] has an IC50 of 14 nM.
`COc1nccc(C(F)F)c1N1CCC(N2C(=O)N(Cc3ccccc3C(F)(F)F)c3n[nH]cc3C2C)CC1` (single isomer, unassigned) [Example 353] showed an IC50 of 997 nM.
For `Cc1cccc(F)c1N1CCC(N2Cc3cn(CC4(C)CC4)nc3N(Cc3ccccc3C(F)(F)F)C2=O)CC1` [Example 158], the IC50 was 11 nM.
Work on `Cc1cccc(F)c1N1CCC(N2Cc3cn(CC4(F)COC4)nc3N(Cc3ccccc3C(F)(F)F)C2=O)CC1` [Example 164] yielded an IC50 of 13 nM.
`Cn1cc2c(n1)N(Cc1ccccc1C(F)(F)F)C(=O)N(C1CCN(c3c(F)cccc3C(F)(F)F)CC1)C2` [Example 243] gave an IC50 of 28 nM.
Work on `Cn1cc2c(n1)N(Cc1ccccc1C(F)(F)F)C(=O)N(C1CCN(c3ncccc3F)CC1)C2` [Example 68] yielded an IC50 of 318 nM.
`Cc1cccc(F)c1N1CCC(N2Cc3cn(C[C@H]4CC(F)(F)CN4C(=O)OC(C)(C)C)nc3N(Cc3ccccc3C(F)(F)F)C2=O)CC1` [Example 108] was tested, and the IC50 was 21 nM.
With `Cc1cccnc1N1CCC(N2Cc3cn(C)nc3N(Cc3ccccc3C(F)(F)F)C2=O)CC1` [Example 69] the IC50 was 38 nM.
With `COC(=O)Cn1ncc2c1CN(C1CCN(c3c(C)cccc3F)CC1)C(=O)N2Cc1ccccc1C(F)(F)F` [Example 19] the IC50 was 637 nM.
With `Cc1cccc(F)c1N1CCC(N2Cc3cn(C(C)(C)CO)nc3N(Cc3ccccc3C(F)(F)F)C2=O)CC1` [Example 32] the IC50 was 14 nM.
For `Cc1cccc(F)c1N1CCC(N2Cc3cn(C4CNC4=O)nc3N(Cc3ccccc3C(F)(F)F)C2=O)CC1` (centres unmarked) [Example 157], the IC50 was 17 nM.
With `Cc1cccc(F)c1N1CCC(N2C(=O)N(Cc3ccccc3C(F)(F)F)c3nn(C4CCCCO4)cc3C2C)CC1` (centres unmarked) [Example 313] the IC50 was 13 nM.
Molecule `Cc1cccc(F)c1N1CCC(N2Cc3cn(C4COC4)nc3N(Cc3ccccc3C(F)(F)F)C2=O)CC1` [Example 77] has an IC50 of 10 nM.
Molecule `CC1c2cn(C3CC3)nc2N(Cc2ccccc2C(F)(F)F)C(=O)N1C1CCN(c2c(F)cccc2C(F)F)CC1` (single isomer, unassigned) [Example 311] has an IC50 of 13 nM.
For `Cc1cccc(F)c1N1CCC(N2Cc3cn(C[C@H]4CCN4)nc3N(Cc3ccccc3C(F)(F)F)C2=O)CC1` [Example 130], the IC50 was 390 nM.
`C=C(C)Cn1cc2c(n1)N(Cc1ccccc1C(F)(F)F)C(=O)N(C1CCN(c3c(C)cccc3F)CC1)C2` [Example 154] was tested, and the IC50 was 26 nM.
Molecule `Cc1cccc(F)c1N1CCC(N2Cc3cn(C4CCCCC4[N+](=O)[O-])nc3N(Cc3ccccc3C(F)(F)F)C2=O)CC1` (centres unmarked) [Example 82] has an IC50 of 119 nM.
Molecule `Cc1cccc(F)c1N1CCC(N2Cc3cn(C4CCNC4)nc3N(Cc3ccccc3C(F)(F)F)C2=O)CC1` (centres unmarked) [Example 94] has an IC50 of 727 nM.
`CC1c2cn(C)nc2N(Cc2ccccc2C(F)(F)F)C(=O)N1C1CCN(c2c(F)cccc2C2CC2)CC1` (single isomer, unassigned) [Example 334] was tested, and the IC50 was 210 nM.
In the case of `CC1c2c[nH]nc2N(Cc2ccccc2C2CC2)C(=O)N1C1CCN(c2c(F)cccc2Cl)CC1` (single isomer, unassigned) [Example 373], the IC50 is reported as 1010 nM.
Molecule `Cc1cccc(F)c1N1CCC(N2Cc3cn(C(C)C)nc3N(Cc3ccccc3C(F)(F)F)C2=O)CC1` [Example 161] has an IC50 of 7 nM.
`Cc1cccc(F)c1N1CCC(N2Cc3cn(C)nc3N(Cc3ccccc3OC(F)(F)F)C2=O)CC1` [Example 232] was tested, and the IC50 was 16 nM.
`COc1nccc(C(F)F)c1N1CCC(N2C(=O)N(Cc3ccccc3C(F)(F)F)c3nn(C)cc3C2C)CC1` (single isomer, unassigned) [Example 346] showed an IC50 of 7 nM.
Work on `COc1nccc(C)c1N1CCC(N2C(=O)N(Cc3ccccc3C3CC3)c3cn(C4CCCCO4)nc3C2C)CC1` (centres unmarked) [Example 269] yielded an IC50 of 193 nM.
Work on `Cc1cccc(F)c1N1CCC(N2C(=O)N(Cc3ccccc3C(F)(F)F)c3cn(C)nc3C2C)CC1` (single isomer, unassigned) [Example 203] yielded an IC50 of 74 nM.
`Cc1cccc(F)c1N1CCC(N2Cc3nn(COCC[Si](C)(C)C)cc3N(Cc3ncccc3C(F)(F)F)C2=O)CC1` [Example 199] showed an IC50 of 32 nM.
With `Cc1nccc(F)c1N1CCC(N2Cc3cn(C)nc3N(Cc3ccccc3C(F)(F)F)C2=O)CC1` [Example 86] the IC50 was 230 nM.
Work on `Cc1cccc(F)c1N1CCC(N2Cc3cn(C4CC4)nc3N(Cc3ccccc3C(F)(F)F)C2=O)CC1` [Example 174] yielded an IC50 of 7 nM.
`COc1nccc(C)c1N1CCC(N2Cc3nn(CC(C)(F)F)cc3N(Cc3ccccc3C(F)(F)F)C2=O)CC1` [Example 219] showed an IC50 of 38 nM.
`Cn1cc2c(n1)N(Cc1ccccc1C(F)(F)F)C(=O)N(C1CCN(c3c(F)cccc3C#N)CC1)C2` [Example 49] gave an IC50 of 12 nM.
With `COc1nccc(C(F)F)c1N1CCC(N2C(=O)N(Cc3ccccc3C3CC3)c3nn(C4CC4)cc3C2C)CC1` (single isomer, unassigned) [Example 383] the IC50 was 204 nM.
`COc1nccc(C)c1N1CCC(N2C(=O)N(Cc3ccccc3C3CC3)c3nn(C)cc3C2C)CC1` (single isomer, unassigned) [Example 369] gave an IC50 of 256 nM.
In the case of `Cc1cccc(F)c1N1CCC(N2Cc3cn(CCN4CCOCC4)nc3N(Cc3ccccc3C(F)(F)F)C2=O)CC1` [Example 64], the IC50 is reported as 21 nM.
In the case of `COc1nccc(C)c1N1CCC(N2C(=O)N(Cc3ccccc3C3CC3)c3nn(C4CC4)cc3C2C)CC1` (single isomer, unassigned) [Example 381], the IC50 is reported as 190 nM.
For `Cc1nc2c(o1)N(Cc1ccccc1C(F)(F)F)C(=O)N(C1CCN(c3c(C)cccc3F)CC1)C2` [Example 89], the IC50 was 54 nM.
With `COC(=O)Cn1cc2c(n1)CN(C1CCN(c3c(C)cccc3F)CC1)C(=O)N2Cc1ccccc1C(F)(F)F` [Example 18] the IC50 was 132 nM.
In the case of `Cc1cccc(F)c1N1CCC(N2C(=O)N(Cc3ccccc3C3CC3)c3cn(CC(C)(F)F)nc3C2C)CC1` (single isomer, unassigned) [Example 277], the IC50 is reported as 56 nM.
Work on `CC(c1ccccc1C(F)(F)F)N1C(=O)N(C2CCN(c3c(F)cccc3C#N)CC2)Cc2cn(C)nc21` (single isomer, unassigned) [Example 288] yielded an IC50 of 75 nM.
`Cc1ccc(C(F)(F)F)c(CN2C(=O)N(C3CCN(c4c(C)cccc4F)CC3)Cc3cn(C)nc32)n1` [Example 37] showed an IC50 of 53 nM.
Work on `Cn1cc2c(n1)N(Cc1ccccc1C(F)(F)F)C(=O)N(C1CCN(c3c(F)cccc3F)CC1)C2` [Example 273] yielded an IC50 of 13 nM.
